Values quoted from earlier work as cited in patent publication US20160120848A1, “SPECIFIC CANCER TREATMENT REGIMES WITH GANETESPIB” (SYNTA PHARMACEUTICALS CORP., priority 2013, published 2016).

Assays:
[1] = test system: FLT3 with Hsp90; conditions: cited from earlier work
[2] = test system: leukemia cells that express either wild type FLT3 or FLT3-ITD mutations; conditions: cells expressing wild type FLT3 or FLT3-ITD mutations; cited from earlier work
[3] = test system: Kasumi-1 cells; conditions: Kasumi-1, acute myeloid leukemia cell line with c-Kit mutation; cited from earlier work

C=CCNC1=C2C[C@@H](C)C[C@H](OC)[C@H](O)[C@@H](C)/C=C(\C)[C@H](OC(N)=O)[C@@H](OC)/C=C\C=C(/C)C(=O)NC(=CC1=O)C2=O [17AAG]
effect on association of FLT3 with Hsp90 [1]: disrupt the association of FLT3 with Hsp90 | growth of leukemia cells [2]: inhibited | apoptosis [3]: induce apoptosis
